Experimental data: patent US20170226139A1, “CRYSTALLINE SALTS OF (Z)-O-OCTADEC-9-EN-1-YL O,O-DIHYDROGEN PHOSPHOROTHIOATE” (priority 2013, published 2017)
“Also recorded” adds a separate entry of the source. Read-outs that look alike come from different tables or passages of the source.

How the values were obtained:
[1] = biological target: LPA2 receptors from the rat (Rattus norvegicus, UniProt A0ABK0LT65); experiment: Calcium-mobilization assay (FURA-2), rat LPA2; assay type: cell-based
Experimental: We investigated structure-activity relationships across species, LPAR subtypes and between Rx100 and two known process impurities encountered in manufacture: Rx103 (‘E’ isomer) and Rx200 (oleyl phosphate and impurity, which can be an Rx100 degradant along with oleyl alcohol). Rx100, Rx103, Rx200 and native LPA were investigated at different human LPAR subtypes. In addition, the activity of these compounds was evaluated at LPA2 receptors from the rhesus, rat and mouse species. Human LPA1/2/3 subtypes were transfected into mouse embryonic fibroblasts (MEF) or rat hepatoma cells (RH7777)—both of which are normally non-responsive or null to LPA. Human LPA4 was transfected into Chinese hamster ovary (CHO) cells and LPA5 into the B103 neuroblastoma cell line. […] The B103 rat neuroblastoma cell line is endogenously nonresponsive to LPA but expresses heterologous LPA5 receptors well. […] LPAR activation elicits a G-protein-mediated transient rise in intracellular calcium level that is proportional to the concentration of LPA applied. The intracellular calcium level was quantified by the calcium-selective fluorescent indicator FURA-2 (e.g., increased intracellular calcium surge=increased fluorescence).

[2] = biological target: T1, cloned hERG Potassium Channels expressed in human embryonic kidney cells (Homo sapiens, UniProt Q12809); experiment: hERG assay; assay type: cell-based
T1 construct: expressed in transfected cells; host or cells: human embryonic kidney cells

[3] = system: Cultured human peripheral lymphocytes cells; assay type: cell-based; conditions: for Aberrant Cells Mean % −g: excluding gaps only; for Aberrant Cells Mean % +g: plus cells with gaps only
Experimental: Cultured human peripheral lymphocytes cells were incubated in vitro with Rx100.Lysine for 3 hours with and without S9 mix and for 24 hours without S9 mix. For Rx100.Lysine, concentrations ranging from 3.39 to 500 μg/mL were examined in both treatment conditions. Adjusting for purity, the concentration ranges were 3.06 to 452 μg/mL. […] This increase was just above the historical vehicle control range (0 to 2.0%) for 3 hour treatment without metabolic activation. Thus the response observed is a weak positive and of questionable biological significance cytotoxicity was present just below the acceptable limit of 50±5% for this assay.
Thus, Rx100.Lysine was considered negative for inducing chromosome aberrations, polyploidy and endoreduplication, in cultured human peripheral blood lymphocytes following a 3 hour treatment with and a 24 treatment without metabolic activation.

Beagle dogs = experiment: Single-dose subcutaneous toxicity in dogs; assay type: in vivo
Description: One group of one male and one female Beagle dogs received single escalating subcutaneous doses of Rx100.Lysine at 10 and 1 (female)/1.52 (male) mg/kg. […] Parameters evaluated included clinical signs, body weight, and gross pathology. The male and female dog survived until scheduled necropsy on Day 15. Administration of Rx100 had no effect on body weight or general health of the animals. Noteworthy clinical observations were confined to skin and behavior effects. Both animals scratched at the dose site, likely contributing to observations of redness at the dose site. Swelling and a thickened/raised area were also observed during the observation period. Clinical observations were sufficient to warrant the injection of diphenhydramine. […] Following injection of the L-lysine component of the formulation at an independent site, redness, scratching, or swelling was not seen.

[4] = Short term (24 hour) slurry tests, XRPD of wet and dried solids; assay type: physicochemical; conditions: minimum 24 hours, 15 solvent systems, 25 and 50° C., wet and dried solids
Experimental: Second, short term slurry tests were performed. Rx100.L-Lysine salt was slurried for a minimum of 24 hours in 15 different solvent systems at two different temperatures (25 and 50° C.) in an attempt to provide information for crystallization experiments and design of polymorph screening experiments. A 48 position Chemglass reaction block was used for heating and stirring the slurries which were in 2 mL HPLC vials. After the due time, vials were centrifuged and the wet solids were used for X-ray diffraction. […]

[5] = 3-hour treatment with metabolic activation, 84.0 μg/mL
[6] = 3-hour treatment with metabolic activation, 120 μg/mL
[7] = 3-hour treatment with metabolic activation, 172 μg/mL
[8] = 3-hour treatment without metabolic activation, 120 μg/mL
[9] = 3-hour treatment without metabolic activation, 245 μg/mL
[10] = 3-hour treatment without metabolic activation, 350 μg/mL
[11] = 24-hour treatment without metabolic activation, 41.2 μg/mL
[12] = 24-hour treatment without metabolic activation, 84.0 μg/mL
[13] = 24-hour treatment without metabolic activation, 120 μg/mL

T1 sequence (Q12809 whole entry): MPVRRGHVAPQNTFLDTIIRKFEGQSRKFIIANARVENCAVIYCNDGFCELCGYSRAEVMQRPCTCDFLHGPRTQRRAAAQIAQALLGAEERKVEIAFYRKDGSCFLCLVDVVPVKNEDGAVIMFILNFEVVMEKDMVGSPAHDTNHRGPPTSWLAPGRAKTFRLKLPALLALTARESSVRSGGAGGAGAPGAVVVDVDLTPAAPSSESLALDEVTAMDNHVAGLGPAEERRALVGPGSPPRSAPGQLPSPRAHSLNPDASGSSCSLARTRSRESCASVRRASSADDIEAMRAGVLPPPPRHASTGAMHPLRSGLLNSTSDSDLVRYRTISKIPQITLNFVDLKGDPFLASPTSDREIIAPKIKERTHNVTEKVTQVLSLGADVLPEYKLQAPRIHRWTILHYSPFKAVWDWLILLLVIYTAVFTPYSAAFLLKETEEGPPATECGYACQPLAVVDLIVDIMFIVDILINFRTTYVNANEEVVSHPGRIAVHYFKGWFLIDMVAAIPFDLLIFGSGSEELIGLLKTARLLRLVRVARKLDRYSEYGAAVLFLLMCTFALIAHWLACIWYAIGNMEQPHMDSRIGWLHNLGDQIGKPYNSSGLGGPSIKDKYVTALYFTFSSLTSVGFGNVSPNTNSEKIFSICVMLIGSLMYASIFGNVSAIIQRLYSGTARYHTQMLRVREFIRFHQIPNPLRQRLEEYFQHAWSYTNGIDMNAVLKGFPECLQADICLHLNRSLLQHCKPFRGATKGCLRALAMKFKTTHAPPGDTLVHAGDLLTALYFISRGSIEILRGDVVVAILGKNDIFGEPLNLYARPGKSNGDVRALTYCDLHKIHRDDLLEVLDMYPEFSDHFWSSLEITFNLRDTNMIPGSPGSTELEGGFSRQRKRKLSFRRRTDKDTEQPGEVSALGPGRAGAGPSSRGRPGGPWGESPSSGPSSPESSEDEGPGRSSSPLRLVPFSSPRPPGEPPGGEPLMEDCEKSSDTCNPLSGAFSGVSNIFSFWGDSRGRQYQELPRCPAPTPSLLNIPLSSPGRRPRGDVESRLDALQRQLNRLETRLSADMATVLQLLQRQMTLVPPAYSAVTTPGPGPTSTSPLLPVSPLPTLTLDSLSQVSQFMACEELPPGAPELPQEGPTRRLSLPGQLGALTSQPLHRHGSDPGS
Chain of LPA2 receptors from the rat (A0ABK0LT65 1-348): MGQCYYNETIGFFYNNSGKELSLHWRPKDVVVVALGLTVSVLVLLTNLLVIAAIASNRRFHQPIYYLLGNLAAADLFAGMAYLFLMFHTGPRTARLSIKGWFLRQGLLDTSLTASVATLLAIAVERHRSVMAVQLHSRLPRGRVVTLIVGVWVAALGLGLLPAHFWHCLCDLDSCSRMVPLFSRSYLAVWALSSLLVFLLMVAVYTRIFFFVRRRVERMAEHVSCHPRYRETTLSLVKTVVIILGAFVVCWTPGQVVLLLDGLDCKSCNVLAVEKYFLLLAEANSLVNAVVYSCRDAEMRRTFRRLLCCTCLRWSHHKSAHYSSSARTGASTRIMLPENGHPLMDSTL

CCCCCCCC/C=C\CCCCCCCCOP(O)(O)=S [Rx100, (Z)—O-octadec-9-en-1-yl O,O-dihydrogen phosphorothioate]
EC50 [1]: 0.076 µM | Emax ([1]; read-out: Emax (% of LPA)): 100% | IC50 [2]: ~600 µM | hERG IC50 relative to anticipated therapeutic concentrations [2]: 100 fold

CCCCCCCC/C=C\CCCCCCCCOP(O)(O)=S [Rx100.L-Lysine, (Z)—O-octadec-9-en-1-yl O,O-dihydrogen phosphorothioate]
Cytotoxicity (% of Control) [3, 5]: 77 % of Control | Endoreduplicate Mean % [3, 5]: 0.0% | Polyploidy Mean % [3, 5]: 0.0% | Aberrant Cells Mean % −g [3, 5]: 0.0% | Aberrant Cells Mean % +g [3, 5]: 1.5% | Cytotoxicity (% of Control) [3, 6]: 65 % of Control | Endoreduplicate Mean % [3, 6]: 0.0% | Polyploidy Mean % [3, 6]: 0.0% | Aberrant Cells Mean % −g [3, 6]: 0.5% | Aberrant Cells Mean % +g [3, 6]: 2.5% | Cytotoxicity (% of Control) [3, 7]: 68 % of Control | Endoreduplicate Mean % [3, 7]: 0.0% | Polyploidy Mean % [3, 7]: 0.0% | Aberrant Cells Mean % −g [3, 7]: 0.5% | Aberrant Cells Mean % +g [3, 7]: 3.0% | Endoreduplicate Mean % [3, 8]: 0.0% | Polyploidy Mean % [3, 8]: 0.5% | Aberrant Cells Mean % −g [3, 8]: 0.5% | Aberrant Cells Mean % +g [3, 8]: 1.0% | Endoreduplicate Mean % [3, 9]: 0.0% | Polyploidy Mean % [3, 9]: 1.5% | Aberrant Cells Mean % −g [3, 9]: 3.0% | Aberrant Cells Mean % +g [3, 9]: 6.0% | Endoreduplicate Mean % [3, 10]: 0.0% | Polyploidy Mean % [3, 10]: 3.0% | Aberrant Cells Mean % −g [3, 10]: 6.0% | Aberrant Cells Mean % +g [3, 10]: 8.5% | Endoreduplicate Mean % [3, 11]: 0.0% | Polyploidy Mean % [3, 11]: 0.0% | Aberrant Cells Mean % −g [3, 11]: 0.5% | Aberrant Cells Mean % +g [3, 11]: 3.0% | Endoreduplicate Mean % [3, 12]: 0.0% | Polyploidy Mean % [3, 12]: 0.0% | Aberrant Cells Mean % −g [3, 12]: 2.0% | Aberrant Cells Mean % +g [3, 12]: 5.5% | Endoreduplicate Mean % [3, 13]: 0.0% | Polyploidy Mean % [3, 13]: 1.0% | Aberrant Cells Mean % −g [3, 13]: 0.5% | Aberrant Cells Mean % +g [3, 13]: 4.5% | Genotoxic Effects ([3]; 3 hour treatment with S9 and 24 hour treatment without S9): Genotoxic Effects: Negative for inducing chromosome aberrations, polyploidy and endoreduplication following a 3 hour treatment | chromosome aberrations, polyploidy and endoreduplication ([3]; 3 hours with or 24 hours without metabolic activation, listed as Rx100.Lysine): No increase in structural or numerical aberrations, polyploidy or endoreduplication; also recorded: negative | cells with chromosome aberrations ([3]; 3 hours without metabolic activation, increase only at 316 μg/mL, listed as Rx100.Lysine): small but statistically significant increase; also recorded: weakly positive | cytotoxicity ([3]; highest concentration tested, 3-hour exposure): Cytotoxicity was observed | Cytotoxic Effect ([3]; study summary, primary human lymphocytes): Cytotoxic Effect: None | clinical observations at dose sites (Beagle dogs; 1 mg/kg dose): persistent scratching and swelling at dose sites | macroscopic and microscopic findings at dose sites (Beagle dogs; 1 mg/kg dose): No remarkable findings | tolerability of subcutaneous injection (Beagle dogs; Rx100 formulation, beagle dogs): not tolerated | microscopic examination of injection site (Beagle dogs; injection site A (10 mg/kg), both animals): chronic-active inflammation with necrosis and vascular thrombus formation | effect on body weight or general health (Beagle dogs; single escalating SC doses 10 and 1/1.52 mg/kg): no effect | Form by XRPD after short term slurry ([4]; listed as Rx100.L-Lysine salt): no change in form | Form by XRPD after short term slurry ([4]; listed as Rx100 crystalline sesqui-L-lysine salt): do not change in form
